What was measured:
[1] = system: corn earworm (CEW; Helicoverpa zea); test: Insecticidal test for corn earworm, 128-well diet tray assay; assay type: in vivo; settings: 144 h, 50 μg/cm2 on artificial diet, second instar larvae, six days at 25° C.
Method: (§1) Bioassays on corn earworm (CEW; Helicoverpa zea: Lepidoptera) were conducted using a 128-well diet tray assay. Three to five second instar CEW larvae were placed in each well (3 mL) of the diet tray that had been previously filled with 1 mL of artificial diet to which 50 μg/cm^2 of the test compound (dissolved in 50 μL of 90:10 acetone-water mixture) had been applied (to each of eight wells) and then allowed to dry. Trays were covered with a clear self-adhesive cover, and held at 25° C., 14:10 light-dark for six days. Percent mortality was recorded for the larvae in each well; activity in the eight wells was then averaged.

[2] = system: beet armyworm (BAW; Spodoptera exigua); test: Insecticidal test for beet armyworm, 128-well diet tray assay; assay type: in vivo; settings: 144 h, 50 μg/cm2 on artificial diet, second instar larvae, six days at 25° C.
Method: as §1, with “beet armyworm (BAW; Spodoptera exigua:” for “corn earworm (CEW; Helicoverpa zea:”, “BAW” for “CEW”

Compound	mortality at 50 µg/cm2 [1] [%]	mortality at 50 µg/cm2 [2] [%]
Cc1ccc(NC(=S)N/N=C/c2ccc(-c3ncn(-c4ccc(OC(F)(F)F)cc4)n3)cc2)c(C)c1 [Compound 95]	50 to 100	50 to 100
CC(NC(=S)N/N=C/c1ccc(-c2ncn(-c3ccc(OC(F)(F)F)cc3)n2)cc1)c1cccnc1 (stereo not shown) [Compound 158]	50 to 100	50 to 100
FC(F)(F)Oc1ccc(-n2cnc(-c3ccc(/C=N/NC(=S)Nc4ncc(Cl)cc4Cl)cc3)n2)cc1 [Compound 113]	< 50	< 50
COc1cccc(NC(=S)N/N=C/c2ccc(-c3ncn(-c4ccc(OC(F)(F)F)cc4)n3)cc2)c1C [Compound 90]	50 to 100	50 to 100
FC(F)(F)Oc1ccc(-n2ccc(-c3ccc(/C=N/NC(=S)Nc4c(Cl)cccc4Cl)cc3)n2)cc1 [Compound 137]	50 to 100	50 to 100
Cc1ccc(NC(=S)N/N=C/c2ccc(-c3ncn(-c4ccc(OC(F)(F)F)cc4)n3)cc2)cc1 [Compound 92]	50 to 100	50 to 100
COc1ccc(C)cc1NC(=S)N/N=C/c1ccc(-c2ncn(-c3ccc(OC(F)(F)F)cc3)n2)cc1 [Compound 89]	50 to 100	50 to 100
COc1cc(C)ccc1NC(=S)N/N=C/c1ccc(-c2ncn(-c3ccc(OC(F)(F)F)cc3)n2)cc1 [Compound 117]	50 to 100	50 to 100
COc1ccc(C(C)NC(=S)N/N=C/c2ccc(-c3ncn(-c4ccc(OC(F)(F)F)cc4)n3)cc2)cc1 (stereo not shown) [Compound 143]	50 to 100	50 to 100
CC(NC(=S)N/N=C/c1ccc(-c2ncn(-c3ccc(OC(F)(F)F)cc3)n2)cc1)c1ccc(Br)cc1 (stereo not shown) [Compound 146]	50 to 100	50 to 100
Cc1cccc(C)c1NC(=S)N/N=C/c1ccc(-c2ccn(-c3ccc(OC(F)(F)F)cc3)n2)cc1 [Compound 136]	50 to 100	50 to 100
COC(=O)C1CC(c2ccc(/C=N/NC(=S)Nc3c(Cl)cccc3Cl)cc2)=NN1c1ccc(OC(F)(F)F)cc1 (stereo not shown) [Compound 131]	50 to 100	50 to 100
Cc1ccc(Cl)c(C)c1NC(=S)N/N=C/c1ccc(-c2ncn(-c3ccc(OC(F)(F)F)cc3)n2)cc1 [Compound 101]	50 to 100	50 to 100
FC(F)(F)Oc1ccc(-n2cnc(-c3ccc(/C=N/NC(=S)NCc4ccsc4)cc3)n2)cc1 [Compound 154]	50 to 100	50 to 100
Cc1cc(C)c(NC(=S)N/N=C/c2ccc(-c3ncn(-c4ccc(OC(F)(F)F)cc4)n3)cc2)c(C)n1 [Compound 106]	50 to 100	50 to 100
CC(C)c1cccc(C(C)C)c1NC(=S)N/N=C/c1ccc(-c2ncn(-c3ccc(OC(F)(F)F)cc3)n2)cc1 [Compound 107]	50 to 100	50 to 100
COc1ccc(NC(=S)N/N=C/c2ccc(-c3ncn(-c4ccc(OC(F)(F)C(F)(F)F)cc4)n3)cc2)c(C)c1 [Compound 122]	50 to 100	50 to 100
COC(=O)C1CC(c2ccc(/C=N/NC(=S)Nc3c(C)cccc3C)cc2)=NN1c1ccc(OC(F)(F)F)cc1 (stereo not shown) [Compound 130]	50 to 100	50 to 100
Cc1cccc(C)c1NC(=S)N/N=C/c1ccc(-c2cnn(-c3ccc(OC(F)(F)F)cc3)c2)cc1 [Compound 138]	50 to 100	50 to 100
FC(F)(F)Oc1ccc(-n2ccc(-c3ccc(/C=N/NC(=S)Nc4c(Cl)cccc4Cl)cc3)c2)cc1 [Compound 135]	50 to 100	50 to 100
Cc1ccccc1C(C)NC(=S)N/N=C/c1ccc(-c2ncn(-c3ccc(OC(F)(F)F)cc3)n2)cc1 (stereo not shown) [Compound 147]	50 to 100	50 to 100
Cc1ncccc1NC(=S)N/N=C/c1ccc(-c2ncn(-c3ccc(OC(F)(F)F)cc3)n2)cc1 [Compound 99]	50 to 100	50 to 100
Cc1cc(C)c(NC(=S)N/N=C/c2ccc(-c3ncn(-c4ccc(OC(F)(F)F)cc4)n3)cc2)c(C)c1 [Compound 93]	50 to 100	50 to 100
Cc1cccc(C)c1NC(=S)N/N=C/c1ccc(-c2ccn(-c3ccc(OC(F)(F)F)cc3)c2)cc1 [Compound 134]	50 to 100	50 to 100
CCc1cc(OC)ccc1NC(=S)N/N=C/c1ccc(-c2ncn(-c3ccc(OC(F)(F)F)cc3)n2)cc1 [Compound 111]	50 to 100	50 to 100

Compound	mortality at 50 µg/cm2 [1] [%]	mortality at 50 µg/cm2 [2] [%]
COCc1ccc(C(C)NC(=S)N/N=C/c2ccc(-c3ncn(-c4ccc(OC(F)(F)F)cc4)n3)cc2)cc1 (stereo not shown) [Compound 157]	50 to 100	50 to 100
CC(NC(=S)N/N=C/c1ccc(-c2ncn(-c3ccc(OC(F)(F)F)cc3)n2)cc1)c1ccc2c(c1)OCO2 (stereo not shown) [Compound 159]	50 to 100	50 to 100
CCCc1ccccc1NC(=S)N/N=C/c1ccc(-c2ncn(-c3ccc(OC(F)(F)F)cc3)n2)cc1 [Compound 82]	50 to 100	50 to 100
C/C(=N\NC(=S)Nc1c(C)cccc1C)c1ccc(-c2cnn(-c3ccc(OC(F)(F)F)cc3)c2)cc1 [Compound 139]	50 to 100	50 to 100
FC(F)(F)Oc1ccc(-n2cnc(-c3ccc(/C=N/NC(=S)Nc4ccccc4I)cc3)n2)cc1 [Compound 60]	50 to 100	50 to 100
Fc1cc(F)c(NC(=S)N/N=C/c2ccc(-c3ncn(-c4ccc(OC(F)(F)F)cc4)n3)cc2)c(F)c1 [Compound 98]	50 to 100	50 to 100
Cc1ccsc1CNC(=S)N/N=C/c1ccc(-c2ncn(-c3ccc(OC(F)(F)F)cc3)n2)cc1 [Compound 156]	50 to 100	50 to 100
CSc1cc(C)c(NC(=S)N/N=C/c2ccc(-c3ncn(-c4ccc(OC(F)(F)F)cc4)n3)cc2)c(C)c1 [Compound 100]	50 to 100	50 to 100
COc1cc(OC)c(NC(=S)N/N=C/c2ccc(-c3ncn(-c4ccc(OC(F)(F)F)cc4)n3)cc2)c(OC)c1 [Compound 88]	50 to 100	50 to 100
Fc1cccc(Br)c1NC(=S)N/N=C/c1ccc(-c2ncn(-c3ccc(OC(F)(F)F)cc3)n2)cc1 [Compound 105]	50 to 100	50 to 100
COc1cc(C)cc(C)c1NC(=S)N/N=C/c1ccc(-c2ncn(-c3ccc(OC(F)(F)F)cc3)n2)cc1 [Compound 103]	50 to 100	50 to 100
CC(NC(=S)N/N=C/c1ccc(-c2ncn(-c3ccc(OC(F)(F)F)cc3)n2)cc1)c1ccsc1 (stereo not shown) [Compound 155]	50 to 100	50 to 100
Cc1cc(C)c(NC(=S)N/N=C/c2ccc(-c3ncn(-c4ccc(OC(F)(F)C(F)(F)F)cc4)n3)cc2)c(C)c1 [Compound 123]	50 to 100	50 to 100
COc1cc(F)c(NC(=S)N/N=C/c2ccc(-c3ncn(-c4ccc(OC(F)(F)F)cc4)n3)cc2)c(F)c1 [Compound 108]	50 to 100	50 to 100
CC(C)c1ccccc1NC(=S)N/N=C/c1ccc(-c2ncn(-c3ccc(OC(F)(F)F)cc3)n2)cc1 [Compound 80]	50 to 100	50 to 100
COc1ccc(C(C)NC(=S)N/N=C/c2ccc(-c3ncn(-c4ccc(OC(F)(F)F)cc4)n3)cc2)cc1OC (stereo not shown) [Compound 151]	50 to 100	50 to 100
COc1ccc(C(C)NC(=S)N/N=C/c2ccc(-c3ncn(-c4ccc(OC(F)(F)F)cc4)n3)cc2)cc1C (stereo not shown) [Compound 149]	50 to 100	50 to 100
COc1ccc(NC(=S)N(C)/N=C/c2ccc(-c3ncn(-c4ccc(OC(F)(F)F)cc4)n3)cc2)c(C)c1 [Compound 85]	50 to 100	50 to 100
COc1cccc(C(C)NC(=S)N/N=C/c2ccc(-c3ncn(-c4ccc(OC(F)(F)F)cc4)n3)cc2)c1 (stereo not shown) [Compound 153]	50 to 100	50 to 100
COc1cccc(NC(=S)N/N=C/c2ccc(-c3ncn(-c4ccc(OC(F)(F)F)cc4)n3)cc2)c1 [Compound 94]	50 to 100	50 to 100
CCCCc1ccc(-n2cnc(-c3ccc(/C=N/NC(=S)Nc4c(C)cc(OC)cc4C)cc3)n2)cc1 [Compound 124]	50 to 100	50 to 100
FC(F)(F)Oc1ccc(N2CCC(c3ccc(/C=N/NC(=S)Nc4c(Cl)cccc4Cl)cc3)=N2)cc1 [Compound 141]	50 to 100	50 to 100
Cc1cccc(C)c1NC(=S)N/N=C/c1ccc(C2=NN(c3ccc(OC(F)(F)F)cc3)CC2)cc1 [Compound 140]	50 to 100	50 to 100
CCCN(/N=C/c1ccc(-c2ncn(-c3ccc(OC(F)(F)F)cc3)n2)cc1)C(=S)Nc1ccc(OC)cc1C [Compound 87]	< 50	< 50
COc1ccccc1C(C)NC(=S)N/N=C/c1ccc(-c2ncn(-c3ccc(OC(F)(F)F)cc3)n2)cc1 (stereo not shown) [Compound 148]	50 to 100	50 to 100
